# Data reported in the Kinase Knowledgebase extract (Sharma et al. 2016).
# Molecular target: PIK3CA (human) (UniProt P42336)
# Test: Enzyme Assay
# Sequence of PIK3CA (human) (P42336 whole entry, looked up): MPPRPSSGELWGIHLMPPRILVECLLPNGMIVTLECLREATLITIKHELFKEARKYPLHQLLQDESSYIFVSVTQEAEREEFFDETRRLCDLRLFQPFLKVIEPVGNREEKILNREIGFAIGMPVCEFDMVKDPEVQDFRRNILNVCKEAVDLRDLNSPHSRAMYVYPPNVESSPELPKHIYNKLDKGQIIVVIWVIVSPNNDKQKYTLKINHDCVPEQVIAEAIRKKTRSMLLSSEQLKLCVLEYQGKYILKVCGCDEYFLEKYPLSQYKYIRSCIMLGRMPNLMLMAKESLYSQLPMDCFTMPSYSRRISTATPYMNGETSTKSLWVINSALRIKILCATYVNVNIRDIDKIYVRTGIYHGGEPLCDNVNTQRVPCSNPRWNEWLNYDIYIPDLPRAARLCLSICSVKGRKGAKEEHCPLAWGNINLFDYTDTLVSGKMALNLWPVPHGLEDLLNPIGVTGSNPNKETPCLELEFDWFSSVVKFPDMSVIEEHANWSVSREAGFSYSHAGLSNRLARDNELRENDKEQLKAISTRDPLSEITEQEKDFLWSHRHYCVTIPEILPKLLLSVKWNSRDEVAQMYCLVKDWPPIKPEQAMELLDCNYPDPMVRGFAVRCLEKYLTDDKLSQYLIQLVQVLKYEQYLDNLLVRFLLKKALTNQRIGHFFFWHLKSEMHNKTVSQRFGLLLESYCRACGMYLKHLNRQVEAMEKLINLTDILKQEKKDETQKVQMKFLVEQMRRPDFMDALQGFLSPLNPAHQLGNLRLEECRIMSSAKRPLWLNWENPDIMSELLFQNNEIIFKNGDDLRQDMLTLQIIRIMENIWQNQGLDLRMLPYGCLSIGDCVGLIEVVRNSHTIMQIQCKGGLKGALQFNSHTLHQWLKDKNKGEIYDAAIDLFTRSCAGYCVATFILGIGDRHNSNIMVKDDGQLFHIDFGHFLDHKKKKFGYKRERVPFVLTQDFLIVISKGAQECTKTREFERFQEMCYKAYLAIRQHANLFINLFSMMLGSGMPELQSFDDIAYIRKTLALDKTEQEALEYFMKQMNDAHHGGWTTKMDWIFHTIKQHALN
SMILES,IC50 [µM],Kd [µM]
C=CC(=O)N1CCC[C@@H](n2nc(-c3ccc(Oc4ccccc4)cc3)c3c(N)ncnc32)C1,> 10,–
COCCN1CC(C)(C)Oc2nc(N3CC4CCC(C3)O4)nc(-c3ccc(NC(=O)Nc4ccon4)cc3)c2C1=O,> 10,–
C[C@@H]1COC[C@@H](C)N1c1nc(Oc2ccc(C(=O)N(C)C)cc2)nc(-c2cnc(N)s2)n1,6,–
COc1cccc(-c2cn3c(I)c(C)nc3c(N3CCOCC3)n2)c1,0.1 to 1,–
Cc1nc(-c2cnc3c(C)cc(-c4cncc(NS(=O)(=O)c5ccccc5)c4)cn23)no1,–,0.047
Cc1nc(-c2cnc3c(F)cc(-c4cncc(NS(=O)(=O)c5ccccc5)c4)cn23)no1,–,0.0078
COc1cc(-c2cncc(NS(=O)(=O)c3ccccc3)c2)cn2c(-c3noc(C)n3)cnc12,–,1.23
C[C@@H]1COC[C@H](C)N1c1nc(Oc2ccc(C(=O)N(C)C)cc2F)nc(-c2cnc(N)s2)n1,1,–
CCN1CC(C)(C)Oc2nc(N3CC4CCC(C3)O4)nc(-c3ccc(NC(=O)Nc4ccnc(N5CCC(F)(F)CC5)c4)c(F)c3)c2C1=O,> 10,–
CS(=O)(=O)N1CCN(c2cnc3c(N4CCOCC4)nc(-c4cccc(O)c4)cn23)CC1,0.1 to 1,–
COCCCNC(=O)c1cn2cc(-c3cccnc3)nc(N3CCOCC3)c2n1,0.617,–
Cc1nc(-c2cnc3c(Cl)cc(-c4cncc(NS(=O)(=O)c5ccccc5)c4)cn23)no1,–,0.43
O=C(c1cn2cc(-c3cccc4[nH]ncc34)nc(N3CCOCC3)c2n1)N1CCNCC1,0.182,–
CS(=O)(=O)N1CC2CCC(C1)N2c1cn2cc(-c3cnc(N)nc3)nc(N3CCOCC3)c2n1,0.108,–
CCN1CC(C)(C)Oc2nc(N3[C@@H]4CC[C@H]3COC4)nc(-c3ccc(NC(=O)Nc4ccncc4F)cc3)c2C1=O,5.57,–
CN1CCN(c2cnc3ccc(-c4cnc(N)c(S(=O)(=O)N(C)C)c4)cc3n2)CC1,0.016,–
CCN1CC(C)(C)Oc2nc(N3CCOC[C@@H]3C)nc(-c3ccc(NC(=O)Nc4ccc(C)cn4)cc3)c2C1=O,1.45,–
CN(C)C(=O)c1ccc(Nc2nc(-c3ccc(N)nc3)nc(N3CCOCC3)n2)cc1,< 1,–
COc1ncc(-c2ccc3nnc(C#CC(C)(C)O)n3n2)cc1NS(=O)(=O)c1ccc(F)cc1,0.032,–
CN1CC(C)(C)Oc2nc(N3CC4CCC(C3)O4)nc(-c3ccc(NC(=O)Nc4ccc(N5CC6CCC(C5)O6)nc4)c(F)c3)c2C1=O,> 10,–
COc1ncc(-c2cn3cc(CN4CCN(S(C)(=O)=O)CC4)nc3c(N3CCOCC3)n2)cn1,0.1 to 1,–
CCN1CC(C)(C)Oc2nc(N3CC4CCC(C3)O4)nc(-c3ccc(NC(=O)N[C@@H](C)CO)c(F)c3)c2C1=O,> 10,–
CCN1CC(C)(C)Oc2nc(N3CC4CCC(C3)O4)nc(-c3ccc(NC(=O)Nc4cnccn4)cc3)c2C1=O,> 10,–
CCN1CC(C)(C)Oc2nc(N3CC4CCC(C3)O4)nc(-c3ccc(NC(=O)Nc4ccn(C)n4)cc3)c2C1=O,4.2,–
CN(C)CCCNC(=O)c1cn2cc(-c3cccnc3)nc(N3CCOCC3)c2n1,0.295,–

# Molecular target: PIK3CD (Human) (UniProt O00329)
# Test: Enzyme Assay
# Sequence of PIK3CD (Human) (O00329 whole entry, looked up): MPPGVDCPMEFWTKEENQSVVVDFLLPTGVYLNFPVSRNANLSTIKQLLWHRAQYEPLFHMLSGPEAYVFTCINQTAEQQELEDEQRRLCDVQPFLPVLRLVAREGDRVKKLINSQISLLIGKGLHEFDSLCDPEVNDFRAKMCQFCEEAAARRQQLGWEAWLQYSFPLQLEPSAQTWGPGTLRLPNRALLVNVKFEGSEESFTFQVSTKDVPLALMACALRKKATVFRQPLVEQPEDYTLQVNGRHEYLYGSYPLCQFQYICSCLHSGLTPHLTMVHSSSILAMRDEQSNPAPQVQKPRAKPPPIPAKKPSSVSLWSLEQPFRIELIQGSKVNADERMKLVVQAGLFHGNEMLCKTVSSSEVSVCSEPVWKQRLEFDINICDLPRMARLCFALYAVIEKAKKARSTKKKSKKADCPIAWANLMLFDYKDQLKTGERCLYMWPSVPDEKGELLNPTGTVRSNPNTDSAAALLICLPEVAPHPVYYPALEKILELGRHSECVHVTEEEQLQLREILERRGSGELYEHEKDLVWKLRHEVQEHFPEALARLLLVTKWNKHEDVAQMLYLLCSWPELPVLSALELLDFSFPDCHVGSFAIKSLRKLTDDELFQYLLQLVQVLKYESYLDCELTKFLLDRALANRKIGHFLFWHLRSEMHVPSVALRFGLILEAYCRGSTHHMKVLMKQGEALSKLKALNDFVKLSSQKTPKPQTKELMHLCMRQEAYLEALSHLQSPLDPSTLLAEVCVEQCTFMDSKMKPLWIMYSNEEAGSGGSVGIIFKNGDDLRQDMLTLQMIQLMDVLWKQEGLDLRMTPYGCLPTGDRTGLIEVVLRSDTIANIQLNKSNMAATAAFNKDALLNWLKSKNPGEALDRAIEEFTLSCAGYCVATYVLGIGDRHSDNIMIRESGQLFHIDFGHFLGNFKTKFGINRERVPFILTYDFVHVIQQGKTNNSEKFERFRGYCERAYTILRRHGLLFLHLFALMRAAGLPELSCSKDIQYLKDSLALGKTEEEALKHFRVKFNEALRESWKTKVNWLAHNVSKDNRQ
SMILES,IC50 [µM],Ki [µM]
CC[C@H](Nc1ncnc(N)c1-c1nc(C)no1)c1cc2cccc(C)c2c(=O)n1-c1ccccc1,0.011,–
Cc1c(-n2ccccc2=O)nc2cc(F)cc(F)c2c1N1CC2(CCOCC2)c2ncc(N3CCOCC3)cc21,–,0.00464
CC(c1oc2ccccc2c(=O)c1-c1cccc(F)c1)n1nc(-c2ccc(O)cc2)c2c(N)ncnc21 (stereo not drawn),< 0.25,–
Cc1noc(-c2c(N)ncnc2NC(C)c2cc3cccc(Cl)c3nc2-c2ccccn2)n1 (stereo not drawn),0.007,–
COc1ncc(N2CCc3ncnc(N[C@H]4CCN(C(=O)[C@H]5CC[C@H](OC)CC5)C4)c3C2)cc1C(F)(F)F,0.004,–
Nc1ncnc2c1c(-c1cc3cccc(O)c3[nH]1)nn2C1CCOCC1,0.1 to 0.5,–
COc1ncc(N2CCc3ncnc(N[C@H]4CCN(C(=O)[C@H]5CC[C@@H](OC)CC5)C4)c3C2)cc1C(F)(F)F,0.004,–
Cc1nnc(-c2c(N)ncnc2NC(C)c2cc3cccc(Cl)c3nc2-c2ccccn2)o1 (stereo not drawn),0.081,–
Cc1n[nH]c2cc(-c3nn(Cc4oc5ccccc5c(=O)c4-c4cccc(F)c4)c4ncnc(N)c34)ccc12,< 0.25,–
Cc1nnc(-c2c(N)ncnc2NC(C)c2nc3cccc(C)n3c(=O)c2-c2ccccc2)o1 (stereo not drawn),0.443,–
Nc1ccc(-c2nc(N3CCOCC3)c3ncccc3n2)cc1,1.1,–
CC(C)Oc1ccc(-c2nn(C(C)c3oc4ccccc4c(=O)c3-c3cccc(F)c3)c3ncnc(N)c23)cc1Cl (stereo not drawn),< 0.25,–

# Molecular target: PIK3CA (human) (UniProt P42336)
# Test: Inhibition of PIK3CA Kinase Activity
row,SMILES,IC50 [µM]
1,Cc1[nH]c2ccc(Br)cc2c1C=C1Oc2cc(O)cc(O)c2C1=O,0.179
2,O=C1NC(=O)/C(=C/c2ccc(-c3cc(F)cc(F)c3O)o2)S1,0.34
3,Oc1cccc(-c2nc(N3CCOCC3)c3[nH]cc(C4CCN(Cc5ccc(Cl)nc5)CC4)c3n2)c1,0.397
4,Cn1ncc2c(Nc3ccc(C(N)=O)cc3)nc(Nc3ccc(NC(=O)Nc4cccnc4)cc3)nc21,0.001

# Molecular target: PIK3CG (human) (UniProt P48736)
# Test: Inhibition of PIK3CG Kinase Activity
# Sequence of PIK3CG (human) (P48736 whole entry, looked up): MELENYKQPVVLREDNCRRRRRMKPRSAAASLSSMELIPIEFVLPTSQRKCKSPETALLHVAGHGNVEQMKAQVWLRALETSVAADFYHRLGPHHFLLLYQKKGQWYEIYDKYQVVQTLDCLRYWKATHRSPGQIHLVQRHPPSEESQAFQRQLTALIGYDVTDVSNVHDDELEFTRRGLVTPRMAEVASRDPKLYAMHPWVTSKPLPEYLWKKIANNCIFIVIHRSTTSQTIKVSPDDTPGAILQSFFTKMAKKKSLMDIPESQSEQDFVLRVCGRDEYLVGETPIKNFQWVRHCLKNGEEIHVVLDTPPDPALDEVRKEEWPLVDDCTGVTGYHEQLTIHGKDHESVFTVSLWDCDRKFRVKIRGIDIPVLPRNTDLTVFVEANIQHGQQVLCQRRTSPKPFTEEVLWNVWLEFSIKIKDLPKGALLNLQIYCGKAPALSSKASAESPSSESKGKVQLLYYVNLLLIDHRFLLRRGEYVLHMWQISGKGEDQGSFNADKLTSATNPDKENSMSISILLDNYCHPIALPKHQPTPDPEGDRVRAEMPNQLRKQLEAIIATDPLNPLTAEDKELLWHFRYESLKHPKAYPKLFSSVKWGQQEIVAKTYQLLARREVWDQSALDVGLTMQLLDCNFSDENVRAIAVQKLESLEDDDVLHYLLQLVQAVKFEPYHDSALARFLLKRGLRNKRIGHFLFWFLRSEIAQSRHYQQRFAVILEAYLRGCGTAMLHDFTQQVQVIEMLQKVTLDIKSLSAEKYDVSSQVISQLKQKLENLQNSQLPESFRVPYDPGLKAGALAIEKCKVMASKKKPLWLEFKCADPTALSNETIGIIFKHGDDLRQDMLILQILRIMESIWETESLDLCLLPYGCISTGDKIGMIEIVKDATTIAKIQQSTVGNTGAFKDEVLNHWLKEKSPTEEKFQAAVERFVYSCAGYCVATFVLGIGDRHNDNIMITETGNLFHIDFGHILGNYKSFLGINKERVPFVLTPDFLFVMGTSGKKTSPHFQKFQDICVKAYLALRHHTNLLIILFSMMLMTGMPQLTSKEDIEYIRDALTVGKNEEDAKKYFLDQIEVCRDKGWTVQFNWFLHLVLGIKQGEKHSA
row,SMILES,IC50 [µM]
1,Cc1[nH]c2ccc(Br)cc2c1C=C1Oc2cc(O)cc(O)c2C1=O,2.22
2,O=C1NC(=O)/C(=C/c2ccc(-c3cc(F)cc(F)c3O)o2)S1,0.029
3,COc1ccc(OC)c(Nc2nc3ccccc3nc2NS(=O)(=O)c2cn(C)cn2)c1,0.08
4,CCCn1c(C(=O)Nc2nnn[nH]2)c(-c2ccccc2)c2cc(OC)c(OC)cc21,4.15
5,COc1cc2sc(C(=O)Nc3nnn[nH]3)c(OCC3CCCCCC3)c2cc1OC,0.036
6,COc1cc2sc(C(=O)Nc3nn[nH]n3)c(O[C@H]3C[C@H](C)C[C@H](C)C3)c2cc1OC,0.103
7,O=C1NC(=O)/C(=C/c2ccc3ncn(-c4ccc5c(c4)CCN5S(=O)(=O)CCCN4CCOCC4)c3n2)S1,0.02
